Results reported in patent publication US20230091908A1, “FLUORENE DERIVATIVE, METHOD FOR PRODUCING SAME, AND APPLICATION OF SAME” (Osaka Gas Chemicals Co., Ltd., priority 2019, published 2023).

How the values were obtained:
[1] = 5% mass reduction temperature (TG-DTA); type: physicochemical
Description: (5% Mass Reduction Temperature)
The temperature, at which the mass of the sample is reduced by 5% by mass was measured using a Thermogravimeter-Differential Thermal Analyzer (TG-DTA) (manufactured by SII NanoTechnology Inc., “TG/DTA6200”) in an atmosphere of a nitrogen gas, at a heating rate (programming rate) of 10° C./min. The sample (cured product) was prepared as follows.
That is, 3 parts by mass of Irgacure 184 (manufactured by BASF Japan Ltd.) as a photopolymerization initiator was added to 100 parts by mass of the total amount of the acrylate compound (polymerization component) shown in Table 1 or 3 weighed in a brown bottle, and the mixture was heated to 120° C. for dissolution to obtain a curable composition. An UV irradiation (500 mJ/cm^2) was repeated 4 times on the obtained curable composition to prepare the cured product.

[2] = Solubility in various solvents; type: physicochemical; set-up: key to Solubility: A: Soluble; B: Some soluble, but turbid; C: Insoluble; details: for Solubility: stirred at 50° C. for 30 minutes
Description: The sample 0.3 g was weighed in a sample bottle, the solvent was added by 0.7 g (condition 1: solid content of 30% by mass) or 1.0 g (condition 2: solid content of 23% by mass), and each of the obtained mixed solutions was stirred at a temperature of 50° C. for 30 minutes by using a bioshaker (manufactured by TAITEC CORPORATION, “BR-43FH”). Each of the mixed solutions after stirring was evaluated according to the following criteria. The used solvents were methyl ethyl ketone (MEK), methyl isobuthyl ketone (MIBK), ethyl acetate, propylene glycol monomethyl ether acetate (PGMEA), toluene, dimethylformamide (DMF), or cyclohexanone.
B: Some soluble, but turbid

5% mass reduction temperature ([1]; compound as obtained)	melting point	Solubility ([2]; Cyclohexanone, solid content of 30% by mass)	Solubility ([2]; DMF, solid content of 30% by mass)	Solubility ([2]; Ethyl acetate, solid content of 30% by mass)	Solubility ([2]; MEK, solid content of 30% by mass)	Solubility ([2]; MIBK, solid content of 30% by mass)	Solubility ([2]; PGMEA, solid content of 23% by mass)	Solubility ([2]; PGMEA, solid content of 30% by mass)	Solubility ([2]; Toluene, solid content of 30% by mass)	Solubility in various solvents (summary in words) ([2]; summary of Table 2)	5% mass reduction temperature ([1]; cured product of the compound (UV cured, Irgacure 184), nitrogen, 10° C./min)	Structure (SMILES)
390 °C												COC(=O)CCC1(CCC(=O)OC)c2cc(-c3ccc4ccccc4c3)ccc2-c2ccc(-c3ccc4ccccc4c3)cc21 [DNFDP-m, 9,9-bis(2-methoxycarbonylethyl)-2,7-di(2-naphthyl)fluorene]
	120 °C	A	A	A	A	A	A	B	A	high solubility in various solvents	382 °C	C=CC(=O)OCCCC1(CCCOC(=O)C=C)c2cc(-c3ccc4ccccc4c3)ccc2-c2ccc(-c3ccc4ccccc4c3)cc21 [DNPOA, 9,9-bis(3-acryloyloxypropyl)-2,7-di(2-naphthyl)fluorene]
